Experimental data: patent US8183262B2, “Pyridine derivatives as mGluR2 antagonists” (Hoffmann-La Roche Inc., priority 2007, dated 2012)

Assays:
[1] = target: T1, rat mGlu2 receptor (Rattus norvegicus, UniProt P31421); assay: [3H]-LY354740 binding on mGlu2 transfected CHO cell membranes; conditions: inhibition of 10 nM [3H]-LY354740 binding, membranes of CHO cells transfected with rat mGlu2, room temperature, 1 hour
T1 construct: expressed in transfected cells; membranes prepared
Text: [^3H]-LY354740 Binding on mGlu2 Transfected CHO Cell Membranes. Transfection and Cell Culture
cDNA encoding the rat mGlu2 receptor protein in pBluescript II was subcloned into the eukaryotic expression vector pcDNA I-amp from Invitrogen Ltd (Paisley, UK). This vector construct (pcD1mGR2) was co-transfected with a psvNeo plasmid encoding the gene for neomycin resistance, into CHO cells by a modified calcium phosphate method described by Chen & Okayama (1988). The cells were maintained in Dulbecco's Modified Eagle medium with reduced L-glutamine (1 mM final concentration), 36 mg/L L-Proline and 10% dialysed foetal calf serum from Gibco-Invitrogen; the medium was supplemented with 500 microM α-methyl-4-carboxyphenylglycine (MCPG). Selection was made in the presence of G-418 (300 ug/ml final concentration). Clones were identified by reverse transcription of 5 μg total RNA, followed by PCR using mGlu2 receptor specific primers 5′-[…]-3′ and 5′-[…]-3′ in 60 mM Tris HCl (pH 10), 15 mM (NH4)2SO4, 2 mM MgCl2, 25 units/ml Taq Polymerase with 30 cycles annealing at 60° C. for 1 min., extention at 72° C. for 30 s, and 1 min. 95° C. denaturation.
Cells, cultured as above, were harvested and washed three times with cold PBS and frozen at −80° C. The pellet was resuspended in cold 20 mM HEPES-NaOH buffer containing 10 mM EDTA (pH 7.4), and homogenised with a polytron (Kinematica, A G, Littau, Switzerland) for 10 s at 10 000 rpm. After centrifugation for 30 min. at 4° C., the pellet was washed once with cold 20 mM HEPES-NaOH buffer containing 0.1 mM EDTA, (pH 7.4). After a second centrifugation for 30 min. at 4° C. the pellet was resuspended in cold 20 mM HEPES-NaOH buffer containing 0.1 mM EDTA, (pH 7.4). Protein content was measured using the Micro BCA method from Pierce-Perbio (Rockford, Ill., USA) using bovine serum albumin as standard.
After thawing, the membranes were resuspended in cold 50 mM Tris-HCl buffer containing 2 mM MgCl2 (pH 7.4) (binding buffer). The final concentration of the membranes in the assays was 25 μg protein/ml. Inhibition experiments were performed with membranes incubated with 10 nM [^3H]-LY354740 at room temperature, for 1 hour, in presence of various concentrations of the compound to be tested. Following the incubations, membranes were filtered onto Whatmann GF/B glass fiber filters or onto GF/B Unifilter plates and washed 5 times with cold binding buffer. Non specific binding was measured in the presence of 10 μM (2S,2′R,3′R)-2-(2′3′-Dicarboxycyclopropyl)glycine (DCG IV from Tocris, Ellisville, Mo. USA). After transfer of the filters into plastic vials containing 10 ml of Ultima-gold scintillation fluid from Perkin-Elmer (Boston, Mass., USA), the radioactivity was measured by liquid scintillation in a Tri-Carb 2500 TR counter (Packard, Zürich, Switzerland). For 96-Unifilter plates the radioactivity was measured after addition of Microscint 40 scintillation fluid (Perkin Elmer, Boston Mass.) using a TopCount NXT (Packard)
The inhibition curves were fitted with a four parameter logistic equation giving IC50 values, and Hill coefficients.

T1 sequence (P31421 19-872): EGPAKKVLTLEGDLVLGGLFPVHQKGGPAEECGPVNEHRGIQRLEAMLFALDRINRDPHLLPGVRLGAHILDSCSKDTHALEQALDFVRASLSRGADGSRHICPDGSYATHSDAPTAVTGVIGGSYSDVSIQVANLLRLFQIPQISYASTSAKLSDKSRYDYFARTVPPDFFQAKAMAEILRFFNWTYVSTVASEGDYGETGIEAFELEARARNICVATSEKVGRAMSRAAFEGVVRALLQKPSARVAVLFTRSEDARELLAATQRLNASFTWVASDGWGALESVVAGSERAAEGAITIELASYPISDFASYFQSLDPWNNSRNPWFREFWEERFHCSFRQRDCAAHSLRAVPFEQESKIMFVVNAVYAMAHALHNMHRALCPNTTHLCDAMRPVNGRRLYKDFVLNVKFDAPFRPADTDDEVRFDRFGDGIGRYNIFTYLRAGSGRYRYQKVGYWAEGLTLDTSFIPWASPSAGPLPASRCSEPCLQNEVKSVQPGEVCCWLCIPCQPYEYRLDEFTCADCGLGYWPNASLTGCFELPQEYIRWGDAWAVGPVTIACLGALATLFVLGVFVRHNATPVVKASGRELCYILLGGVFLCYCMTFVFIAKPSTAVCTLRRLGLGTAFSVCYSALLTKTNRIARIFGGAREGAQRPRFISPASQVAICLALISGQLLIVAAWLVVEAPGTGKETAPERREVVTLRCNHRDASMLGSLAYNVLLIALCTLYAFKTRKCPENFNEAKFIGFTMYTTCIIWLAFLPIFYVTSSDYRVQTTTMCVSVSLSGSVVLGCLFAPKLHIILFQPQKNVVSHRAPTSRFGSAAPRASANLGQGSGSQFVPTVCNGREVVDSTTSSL

Structure (SMILES) | Ki [1] | melting point
FC(F)(F)c1ccc(-c2cc(-c3cccc(-c4cccnc4)c3)nc(C3CC3)c2)cc1 [Example 63, 2-Cyclopropyl-6-(3-pyridin-3-yl-phenyl)-4-(4-trifluoromethyl-phenyl)-pyridine] | 29 nM | 100 to 104 °C
Cc1cc(-c2ccc(C(F)(F)F)cc2)cc(-c2ccnc(-c3ccnc(N)c3)n2)n1 [Example 360, 4-{4-[6-Methyl-4-(4-trifluoromethyl-phenyl)-pyridin-2-yl]-pyrimidin-2-yl}-pyridin-2-ylamine] | 5 nM | 217 °C
FC(F)(F)c1cc(-c2ccc(Cl)cc2)nc(-n2ccnc2)n1 [Example 1, 4-(4-Chloro-phenyl)-2-imidazol-1-yl-6-trifluoromethyl-pyrimidine] | 74 nM | 175 °C
Cc1cc(-c2ccc(C(F)(F)F)cc2)cc(-c2ccnc(-c3cccc(S(=O)(=O)N4CCOCC4)c3)c2)n1 [Example 346, 6-Methyl-2′-[3-(morpholine-4-sulfonyl)-phenyl]-4-(4-trifluoromethyl-phenyl)-[2,4′]bipyridinyl] | 4 nM | 115 °C
Cc1cc(-c2ccc(C(F)(F)F)cc2)cc(-c2cccc(-c3ccc(N)nc3)c2)n1 [Example 62, 5-{3-[6-Methyl-4-(4-trifluoromethyl-phenyl)-pyridin-2-yl]-phenyl}-pyridin-2-ylamine] | 3 nM | 68 to 90 °C
CS(=O)(=O)Nc1cccc(-c2cccc(-c3nc(-c4ccc(C(F)(F)F)cc4)cc(C(F)(F)F)n3)c2)c1 [Example 223, N-{3′-[4-Trifluoromethyl-6-(4-trifluoromethyl-phenyl)-pyrimidin-2-yl]-biphenyl-3-yl}-methanesulfonamide] | 13 nM | 191 °C
Cc1cc(-c2ccc(Cl)c(Cl)c2)cc(-n2ccnc2)n1 [Example 247, 4-(3,4-Dichloro-phenyl)-2-imidazol-1-yl-6-methyl-pyridine] | 41 nM | 227 °C
Nc1ccc(-c2cn(-c3cc(C(F)(F)F)cc(-c4ccc(Cl)cc4)n3)cn2)cn1 [Example 56, 5-{1-[6-(4-Chloro-phenyl)-4-trifluoromethyl-pyridin-2-yl]-1H-imidazol-4-yl}-pyridin-2-ylamine] | 9 nM | 196 °C (dec.)
FC(F)(F)c1ccc(-c2cc(C(F)(F)F)nc(-n3ccnc3)n2)cc1 [Example 3, 2-Imidazol-1-yl-4-trifluoromethyl-6-(4-trifluoromethyl-phenyl)-pyrimidine] | 72 nM | 162 °C
NS(=O)(=O)c1cccc(-c2noc(-c3cc(C(F)(F)F)cc(-c4ccc(C(F)(F)F)cc4)n3)n2)c1 [Example 243, 3-{5-[4-Trifluoromethyl-6-(4-trifluoromethyl-phenyl)-pyridin-2-yl]-[1,2,4]oxadiazol-3-yl}-benzenesulfonamide] | 3 nM | 211 °C
CSc1cccc(-c2cccc(-c3cc(-c4ccc(C(F)(F)F)cc4)cc(C)n3)n2)c1 [Example 357, 6-Methyl-6′-(3-methylsulfanyl-phenyl)-4-(4-trifluoromethyl-phenyl)-[2,2′]bipyridinyl] | 39 nM | 144 °C
Nc1ccc(-c2cccc(-c3cc(C(F)(F)F)cc(-c4ccc(C(F)(F)F)cc4)n3)c2)cn1 [Example 60, 5-{3-[4-Trifluoromethyl-6-(4-trifluoromethyl-phenyl)-pyridin-2-yl]-phenyl}-pyridin-2-ylamine] | 32 nM | 170 to 172 °C
Cc1cc(-c2cccc(-c3nc(-c4ccc(C(F)(F)F)cc4)cc(C(F)(F)F)n3)c2)cc(C)n1 [Example 42, 2-[3-(2,6-Dimethyl-pyridin-4-yl)-phenyl]-4-trifluoromethyl-6-(4-trifluoromethyl-phenyl)-pyrimidine] | 140 nM | 159 °C
